Measured values reported in ChEMBL document CHEMBL5346977, “Discovery of Novel d-(+)-Biotin-Conjugated Resorcinol Dibenzyl Ether-Based PD-L1 Inhibitors for Targeted Cancer Immunotherapy” (J Med Chem, 2023).
The source made the active and inactive calls. The calls are words filed in the database; no cut-off is given here.

Assays:
[1] = Toxicity in allogenic BALB/c mouse implanted with mouse B16-F10 cells assessed as severe crypt necrosis in colon at 50 mg/kg, ip by H&E staining based analysis; type: organism-based; conditions: in vivo
B16-F10 [2] = assay: Antitumor activity against mouse B16-F10 cells implanted in syngeneic C57BL/6 mouse assessed as decrease in tumor weight at 50 mg/kg, ip measured after 12 days relative to control; type: functional; parameters: scale not given: the % may be the effect or the level left; conditions: time 12 day
[3] = Drug concentration in heart of C57BL/6 mouse implanted with mouse B16-F10 cells at 50 mg/kg, ip measured after 0.5 hrs by UPLC-MS/MS analysis; type: ADME, organism-based; conditions: read-out: Ct
[4] = Toxicity in […] with mouse B16-F10 cells assessed as effect on body weight at 50 mg/kg, ip administered once daily for 14 days; type: organism-based; conditions: in vivo, 336 h, time 14 day
[5] = Tmax in C57BL/6 mouse at 50 mg/kg, ip measured after 4 hrs by HPLC-MS/MS analysis; type: ADME, organism-based; conditions: in vivo
[6] = Drug concentration in brain of C57BL/6 mouse implanted with mouse B16-F10 cells at 50 mg/kg, ip measured after 0.5 hrs by UPLC-MS/MS analysis; type: ADME, organism-based; conditions: read-out: Ct
B16-F10 [7] = assay: Antitumor activity against mouse B16-F10 cells implanted in allogenic BALB/c mouse assessed as decrease in PD-L1 protein level at 50 mg/kg, ip by flow cytometric analysis; type: functional, organism-based
HepG2 = assay: Antitumor activity against human HepG2 cells assessed as reduction in cell viability at 1.1 to 10 uM incubated for 48 hrs by CCK-8 assay; type: functional, cell-based; conditions: dose 1.1-10 µM
[8] = MRT (0 to t) in Sprague-Dawley rat at 1 mg/kg, iv administered as single dose and measured after 48 hrs by HPLC-MS/MS analysis; type: ADME, organism-based; conditions: in vivo
[9] = Toxicity in syngeneic C57BL/6 mouse implanted with mouse B16-F10 cells assessed as effect on body weight at 50 mg/kg, ip measured after 12 days; type: organism-based; conditions: in vivo, 288 h, time 12 day
[10] = target: T1, Programmed cell death protein 1/Programmed cell death 1 ligand 1 (Homo sapiens) (UniProt Q15116+Q9NZQ7); assay: Inhibition of GST-tagged PD-1 (unknown origin)/His-tagged PD-L1 (unknown origin) interaction at 10 nM by HTRF binding assay relative to control; type: protein-complex assay
[11] = target: T1, Programmed cell death protein 1/Programmed cell death 1 ligand 1 (Homo sapiens); assay: Inhibition of GST-tagged PD-1 (unknown origin)/His-tagged PD-L1 (unknown origin) interaction at 100 nM by HTRF binding assay relative to control; type: protein-complex assay
[12] = Apparent volume of distribution in Sprague-Dawley rat at 1 mg/kg, iv administered as single dose and measured after 48 hrs by HPLC-MS/MS analysis; type: ADME, organism-based; conditions: in vivo, read-out: Vz
[13] = MRT (0 to infinity) in Sprague-Dawley rat at 1 mg/kg, iv administered as single dose and measured after 48 hrs by HPLC-MS/MS analysis; type: ADME, organism-based; conditions: in vivo
[14] = Drug concentration in plasma of C57BL/6 mouse implanted with mouse B16-F10 cells at 50 mg/kg, ip measured after 4 hrs by UPLC-MS/MS analysis; type: ADME, organism-based
[15] = Initial drug concentration in Sprague-Dawley rat at 1 mg/kg, iv administered as single dose and measured after 48 hrs by HPLC-MS/MS analysis; type: ADME, organism-based; conditions: in vivo
[16] = Drug concentration in tumor of C57BL/6 mouse implanted with mouse B16-F10 cells at 50 mg/kg, ip measured after 4 hrs by UPLC-MS/MS analysis; type: ADME, organism-based, Neoplasm; conditions: read-out: Ct
[17] = AUC (0 to infinity) in C57BL/6 mouse at 50 mg/kg, ip measured after 4 hrs by HPLC-MS/MS analysis; type: ADME, organism-based; parameters: dose 50 mg/kg, time 4 hrs, route ip; conditions: in vivo
[18] = target: Programmed cell death protein 1/Programmed cell death 1 ligand 1 (Homo sapiens, UniProt Q9NZQ7); assay: Inhibition of interaction of PD-1 (unknown origin) expressed in Jurkat T cells carrying luciferase reporter under the control of NFAT promoter/PD-L1 (unknown origin) expressed in CHO cells co-expressing TCR ligand and T-cell surrogate pretreated with CHO cells for 0.5 hrs followed by Jurkat T cell addition and measured after 5 hrs by luminescence based analysis
Sequence of Programmed cell death protein 1/Programmed cell death 1 ligand 1 (Q15116 whole entry): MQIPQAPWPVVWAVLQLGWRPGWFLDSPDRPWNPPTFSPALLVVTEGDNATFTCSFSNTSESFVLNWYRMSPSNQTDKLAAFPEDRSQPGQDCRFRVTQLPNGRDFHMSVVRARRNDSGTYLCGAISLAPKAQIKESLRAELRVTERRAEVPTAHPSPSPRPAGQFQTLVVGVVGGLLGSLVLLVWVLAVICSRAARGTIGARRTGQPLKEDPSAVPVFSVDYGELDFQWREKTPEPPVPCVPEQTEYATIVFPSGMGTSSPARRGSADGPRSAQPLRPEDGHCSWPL
Sequence of Programmed cell death protein 1/Programmed cell death 1 ligand 1 (Q9NZQ7 whole entry): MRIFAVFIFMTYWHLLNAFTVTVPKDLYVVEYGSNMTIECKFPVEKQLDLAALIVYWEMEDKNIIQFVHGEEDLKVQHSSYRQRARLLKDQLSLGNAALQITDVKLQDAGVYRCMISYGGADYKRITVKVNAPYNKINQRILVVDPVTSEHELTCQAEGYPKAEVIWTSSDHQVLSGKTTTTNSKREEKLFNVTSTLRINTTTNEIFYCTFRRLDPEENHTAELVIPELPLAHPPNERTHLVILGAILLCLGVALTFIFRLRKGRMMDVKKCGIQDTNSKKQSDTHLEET

[19] = AUC (0 to infinity) in Sprague-Dawley rat at 1 mg/kg, iv administered as single dose and measured after 48 hrs by HPLC-MS/MS analysis; type: ADME, organism-based; parameters: dose 1 mg/kg, time 48 hrs, route iv; conditions: in vivo
[20] = Drug concentration in brain of C57BL/6 mouse implanted with mouse B16-F10 cells at 50 mg/kg, ip measured after 1 hrs by UPLC-MS/MS analysis; type: ADME, organism-based; conditions: read-out: Ct
[21] = AUC (0 to t) in C57BL/6 mouse at 50 mg/kg, ip measured after 4 hrs by HPLC-MS/MS analysis; type: ADME, organism-based; parameters: time 4 hrs, dose 50 mg/kg, route ip; conditions: in vivo
B16-F10 [22] = assay: Antitumor activity against mouse B16-F10 cells implanted in BALB/c mouse assessed as reduction in tumor volume at 50 mg/kg, ip administered once daily for 14 days relative to control; type: functional; parameters: scale not given: the % may be the effect or the level left; conditions: time 14 day
[23] = Drug concentration in plasma of C57BL/6 mouse implanted with mouse B16-F10 cells at 50 mg/kg, ip measured after 0.5 hrs by UPLC-MS/MS analysis; type: ADME, organism-based
Jurkat = assay: Cytotoxicity against human Jurkat T cells assessed as reduction in cell viability at 1.1 to 10 uM incubated for 48 hrs by CCK-8 assay; type: toxicity, cell-based; conditions: dose 1.1-10 µM
[24] = Drug concentration in tumor of C57BL/6 mouse implanted with mouse B16-F10 cells at 50 mg/kg, ip measured after 1 hrs by UPLC-MS/MS analysis; type: ADME, organism-based, Neoplasm; conditions: read-out: Ct
[25] = Toxicity in allogenic BALB/c mouse implanted with mouse B16-F10 cells assessed as inflammatory cell infiltration in colon at 50 mg/kg, ip by H&E staining based analysis; type: organism-based; conditions: in vivo
[26] = Drug concentration in heart of C57BL/6 mouse implanted with mouse B16-F10 cells at 50 mg/kg, ip measured after 1 hrs by UPLC-MS/MS analysis; type: ADME, organism-based; conditions: read-out: Ct
[27] = Drug concentration in tumor of C57BL/6 mouse implanted with mouse B16-F10 cells at 50 mg/kg, ip measured after 2 hrs by UPLC-MS/MS analysis; type: ADME, organism-based, Neoplasm; conditions: read-out: Ct
[28] = Cmax in C57BL/6 mouse at 50 mg/kg, ip measured after 4 hrs by HPLC-MS/MS analysis; type: ADME, organism-based; parameters: dose 50 mg/kg, time 4 hrs, route ip; conditions: in vivo
[29] = Drug concentration in lung of C57BL/6 mouse implanted with mouse B16-F10 cells at 50 mg/kg, ip measured after 2 hrs by UPLC-MS/MS analysis; type: ADME, organism-based; conditions: read-out: Ct
[30] = Clearance in Sprague-Dawley rat at 1 mg/kg, iv administered as single dose and measured after 48 hrs by HPLC-MS/MS analysis; type: ADME, organism-based; conditions: in vivo
[31] = Apparent volume of distribution in C57BL/6 mouse at 50 mg/kg, ip measured after 4 hrs by HPLC-MS/MS analysis; type: ADME, organism-based; conditions: in vivo
[32] = Drug concentration in spleen of C57BL/6 mouse implanted with mouse B16-F10 cells at 50 mg/kg, ip measured after 0.5 hrs by UPLC-MS/MS analysis; type: ADME, organism-based; conditions: read-out: Ct
[33] = Drug concentration in liver of C57BL/6 mouse implanted with mouse B16-F10 cells at 50 mg/kg, ip measured after 4 hrs by UPLC-MS/MS analysis; type: ADME, organism-based; conditions: read-out: Ct
[34] = Drug concentration in liver of C57BL/6 mouse implanted with mouse B16-F10 cells at 50 mg/kg, ip measured after 2 hrs by UPLC-MS/MS analysis; type: ADME, organism-based; conditions: read-out: Ct

concentration at 0.5 h [3]: 4.7 ng/mL
Tmax [5]: 2.4 h
concentration at 0.5 h [6]: 2.5 ng/mL
MRT last at 48 h [8]: 11.6 h
Vd [12]: 31 L/kg
MRT inf [13]: 19.9 h
concentration at 4 h [14]: 1460 ng/mL
C0 at 48 h [15]: 257 ng/mL
concentration at 4 h [16]: 94.2 ng/mL
AUC [17]: 14501.641 µg/L/h
AUC [19]: 832 ng·h/mL
concentration at 1 h [20]: 3 ng/mL
AUCt [21]: 4673.237 µg/L/h
concentration at 0.5 h [23]: 910 ng/mL
concentration at 1 h [24]: 28.4 ng/mL
concentration at 1 h [26]: 15.9 ng/mL
concentration at 2 h [27]: 404 ng/mL
Cmax [28]: 1540 ng/mL
concentration at 2 h [29]: 94.9 ng/mL
clearance [30]: 21.7 mL/min/kg
Vz [31]: 39.163 L/kg
concentration at 0.5 h [32]: 4570 ng/mL
concentration at 4 h [33]: 3650 ng/mL
concentration at 2 h [34]: 1670 ng/mL
SMILES: Cc1c(COc2cc(OCc3cccc(C#N)c3)c(CN3CCCCC3C(=O)NCCNC(=O)CCCC[C@@H]3SC[C@@H]4NC(=O)N[C@@H]43)cc2Cl)cccc1-c1ccccc1 (stereo partly specified)
Activity [1]: Non-Toxic
Activity (B16-F10 [2]): 39.1%
Activity [4]: Non-Toxic
Activity (B16-F10 [7]): Active
Activity (HepG2): inactive
Activity [9]: Non-Toxic
inhibition [10]: 103%
inhibition [11]: 104%
EC50 [18]: 0.92 µM
Activity (B16-F10 [22]): 76.5%
Activity (Jurkat): Non-Toxic
Activity [25]: Non-Toxic
